The results in this text go back to patent US8343993B2, “Hydroxyalkyl substituted imidazonaphthyridines” (3M Innovative Properties Company, priority 2005, dated 2013).

Where a name gives a salt, the structure may show the parent alone. Read-outs that look alike come from different tables or passages of the source.

The term melting point denotes the temperature of the solid-liquid transition.

One data set relates to IFN-α. Briefly: Cytokine induction in human cells (PBMC): IFN-α secreted into culture media, ELISA. The following applies: median where several experiments; for minimal effective concentration: 30-0.014 μM, lowest concentration inducing over 20 pg/mL, read-out: Minimum Effective Concentration IFN. It counts as cell-based. The text has this:
(§1) An in vitro human blood cell system is used to assess cytokine induction. Activity is based on the measurement of interferon (α) and tumor necrosis factor (α) (IFN-α, and TNF-α, respectively) secreted into culture media as described by Testerman et. al. in “Cytokine Induction by the Immunomodulators Imiquimod and S-27609”, Journal of Leukocyte Biology, 58, 365-372 (September, 1995).
(§2) Whole blood from healthy human donors is collected by venipuncture into vacutainer tubes or syringes containing EDTA. Peripheral blood mononuclear cells (PBMC) are separated from whole blood by density gradient centrifugation using HISTOPAQUE-1077 (Sigma, St. Louis, Mo.) or Ficoll-Paque Plus (Amersham Biosciences Piscataway, N.J.). Blood is diluted 1:1 with Dulbecco's Phosphate Buffered Saline (DPBS) or Hank's Balanced Salts Solution (HBSS). Alternately, whole blood is placed in Accuspin (Sigma) or LeucoSep (Greiner Bio-One, Inc., Longwood Fla.) centrifuge frit tubes containing density gradient medium. The PBMC layer is collected and washed twice with DPBS or HBSS and re-suspended at 4×10^6 cells/mL in RPMI complete. The PBMC suspension is added to 96 well flat bottom sterile tissue culture plates containing an equal volume of RPMI complete media containing test compound.
(§3) The compounds are solubilized in dimethyl sulfoxide (DMSO). The DMSO concentration should not exceed a final concentration of 1% for addition to the culture wells. The compounds are generally tested at concentrations ranging from 30-0.014 μM. Controls include cell samples with media only, cell samples with DMSO only (no compound), and cell samples with reference compound.
(§4) The solution of test compound is added at 60 μM to the first well containing RPMI complete and serial 3 fold dilutions are made in the wells. The PBMC suspension is then added to the wells in an equal volume, bringing the test compound concentrations to the desired range (usually 30-0.014 μM). The final concentration of PBMC suspension is 2×10^6 cells/mL. The plates are covered with sterile plastic lids, mixed gently and then incubated for 18 to 24 hours at 37° C. in a 5% carbon dioxide atmosphere.
(§5) Following incubation the plates are centrifuged for 10 minutes at 1000 rpm (approximately 200×g) at 4° C. The cell-free culture supernatant is removed and transferred to sterile polypropylene tubes. Samples are maintained at −30 to −70° C. until analysis. The samples are analyzed for IFN-α by ELISA and for TNF-α by IGEN/BioVeris Assay.
IFN-α concentration is determined with a human multi-subtype colorimetric sandwich ELISA (Catalog Number 41105) from PBL Biomedical Laboratories, Piscataway, N.J. Results are expressed in pg/mL.
Analysis of the data has two steps. First, the greater of the mean DMSO (DMSO control wells) or the experimental background (usually 20 pg/mL for IFN-α and 40 pg/mL for TNF-α) is subtracted from each reading. If any negative values result from background subtraction, the reading is reported as “*” and is noted as not reliably detectable. In subsequent calculations and statistics, “*” is treated as a zero. Second, all, background subtracted values are multiplied by a single adjustment ratio to decrease experiment to experiment variability. The adjustment ratio is the area of the reference compound in the new experiment divided by the expected area of the reference compound based on the past 61 experiments (unadjusted readings). […] The reference compound used is 2-[4-amino-2-ethoxymethyl-6,7,8,9-tetrahydro-α,α-dimethyl-1H-imidazo[4,5-c]quinolin-1-yl]ethanol hydrate (U.S. Pat. No. 5,352,784; Example 91) and the expected area is the sum of the median dose values from the past 61 experiments.
The minimum effective concentration is calculated based on the background-subtracted, reference-adjusted results for a given experiment and compound. […]

The next data set has as its system TNF-α. Nature of the data set: Cytokine induction in human cells (PBMC): TNF-α secreted into culture media, ORIGEN M-Series immunoassay. Format: cell-based. The following applies: median where several experiments; for minimal effective concentration: 30-0.014 μM, lowest concentration inducing over 40 pg/mL, read-out: Minimum Effective Concentration TNF.
Text: as §1, §2, §3, §4, §5
The TNF-α concentration is determined by ORIGEN M-Series Immunoassay and read on an IGEN M-8 analyzer from BioVeris Corporation, formerly known as IGEN International, Gaithersburg, Md. The immunoassay uses a human TNF-α capture and detection antibody pair (Catalog Numbers AHC3419 and AHC3712) from Biosource International, Camarillo, Calif. Results are expressed in pg/mL.
Analysis of the data has two steps. First, the greater of the mean DMSO (DMSO control wells) or the experimental background (usually 20 pg/mL for IFN-α and 40 pg/mL for TNF-α) is subtracted from each reading. If any negative values result from background subtraction, the reading is reported as “*” and is noted as not reliably detectable. In subsequent calculations and statistics, “*” is treated as a zero. Second, all, background subtracted values are multiplied by a single adjustment ratio to decrease experiment to experiment variability. The adjustment ratio is the area of the reference compound in the new experiment divided by the expected area of the reference compound based on the past 61 experiments (unadjusted readings). […] The reference compound used is 2-[4-amino-2-ethoxymethyl-6,7,8,9-tetrahydro-α,α-dimethyl-1H-imidazo[4,5-c]quinolin-1-yl]ethanol hydrate (U.S. Pat. No. 5,352,784; Example 91) and the expected area is the sum of the median dose values from the past 61 experiments. […]

With `COCCc1nc2c(N)nc3cccnc3c2n1CC(C)(C)O` (as salt: hydrobromid) [Analog 2, 1-[4-amino-2-(2-methoxyethyl)-1H-imidazo[4,5-c][1,5]naphthyridin-1-yl]-2-methylpropan-2-ol], the melting point fell in the range of 234 to 235 °C.

As to `CCOCc1nc2c(N)nc3cccnc3c2n1CC(C)(C)O` [Analog 1, 1-(4-amino-2-ethoxymethyl-1H-imidazo[4,5-c][1,5]naphthyridin-1-yl)-2-methylpropan-2-ol], the melting point was in the range of 157 to 159 °C. In addition, in the data set on IFN-α (Table 3, 18 to 24 hours), the minimal effective concentration came to 0.12 µM. The minimal effective concentration in the data set with IFN-α (Table 4, 18 to 24 hours) was 0.12 µM. The minimal effective concentration in the data set with TNF-α (Table 3, 18 to 24 hours) was 1.11 µM. The minimal effective concentration with TNF-α (Table 4, 18 to 24 hours) was 1.11 µM.

Consider `COCCc1nc2c(N)nc3cccnc3c2n1CC(C)(C)O` [Analog 2, 1-[4-amino-2-(2-methoxyethyl)-1H-imidazo[4,5-c][1,5]naphthyridin-1-yl]-2-methylpropan-2-ol, reference compound], for which the minimal effective concentration was found to be 0.04 µM in the data set on IFN-α (Table 3, 18 to 24 hours); 0.04 µM in the data set with IFN-α (Table 4, 18 to 24 hours); 0.37 µM in the data set with TNF-α (Table 3, 18 to 24 hours); 0.37 µM in the data set on TNF-α (Table 4, 18 to 24 hours).

Consider `Cc1nc2c(N)nc3cccnc3c2n1CC(C)(C)O` [Analog 3, 1-(4-amino-2-methyl-1H-imidazo[4,5-c][1,5]naphthyridin-1-yl)-2-methylpropan-2-ol, reference compound], for which the minimal effective concentration in the data set on IFN-α (Table 4, 18 to 24 hours) came to 0.37 µM; in the data set on TNF-α (Table 4, 18 to 24 hours) it was 3.33 µM.

Turning to `CCc1nc2c(N)nc3cccnc3c2n1CC(C)(C)O` [Analog 4, 1-(4-amino-2-ethyl-1H-imidazo[4,5-c][1,5]naphthyridin-1-yl)-2-methylpropan-2-ol, reference compound], the minimal effective concentration came to 0.37 µM in the data set with IFN-α (Table 4, 18 to 24 hours) and 3.33 µM with TNF-α (Table 4, 18 to 24 hours).

For `CCCc1nc2c(N)nc3cccnc3c2n1CC(C)(C)O` [Analog 5, 1-(4-amino-2-propyl-1H-imidazo[4,5-c][1,5]naphthyridin-1-yl)-2-methylpropan-2-ol, reference compound], the minimal effective concentration in the data set with IFN-α (Table 4, 18 to 24 hours) is 0.12 µM; with TNF-α (Table 4, 18 to 24 hours) it was 1.11 µM.

In turn, `CCOCc1nc2c(N)nc3cccnc3c2n1CC(C)(C)NC(=O)C1CCCCC1` [Analog 6, N-[2-(4-amino-2-ethoxymethyl-1H-imidazo[4,5-c][1,5]naphthyridin-1-yl)-1,1-dimethylethyl]cyclohexanecarboxamide] yielded a melting point of 210 to 211 °C. In addition, the minimal effective concentration in the data set with IFN-α (Table 4, 18 to 24 hours) stood at 0.014 µM. In addition, in the data set with TNF-α (Table 4, 18 to 24 hours), the minimal effective concentration was determined as 0.014 µM.

`CCOCc1nc2c(N)nc3cccnc3c2n1CC(C)(C)NS(C)(=O)=O` [Analog 7, N-[2-(4-amino-2-ethoxoxymethyl-1H-imidazo[4,5-c][1,5]naphthyridin-1-yl)-1,1-dimethylethyl]methanesulfonamide, reference compound]: the minimal effective concentration in the data set with IFN-α (Table 4, 18 to 24 hours) is listed as 0.04 µM; in the data set with TNF-α (Table 4, 18 to 24 hours) it was 0.37 µM. In addition, the “Maximal Response IFN” value with IFN-α (Table 4, background-subtracted, reference-adjusted) came out at 2465 pg/mL. In addition, the “Maximal Response TNF” value with TNF-α (Table 4, background-subtracted, reference-adjusted, * = below background) came to 9234 pg/mL.

For the molecule `Cc1nc2c(N)nc3cccnc3c2n1CC(C)(C)F` [Analog 8, 1-(2-fluoro-2-methylpropyl)-2-methyl-1H-imidazo[4,5-c][1,5]naphthyridin-4-amine, reference compound], the minimal effective concentration was found to be 0.37 µM with IFN-α (Table 4, 18 to 24 hours) and 10 µM in the data set on TNF-α (Table 4, 18 to 24 hours).

With `CCOCc1nc2c(N)nc3cccnc3c2n1CC(C)C` [Analog 9, 2-ethoxymethyl-1-(2-methylpropyl)-1H-imidazo[4,5-c][1,5]naphthyridin-4-amine, reference compound], the minimal effective concentration in the data set with IFN-α (Table 4, 18 to 24 hours) came out at 0.12 µM; in the data set with TNF-α (Table 4, 18 to 24 hours) it was 1.11 µM.

As for `Cc1nc2c(N)nc3cccnc3c2n1CC(C)C` [Analog 10, 2-methyl-1-(2-methylpropyl)-1H-imidazo[4,5-c][1,5]naphthyridin-4-amine, reference compound], the minimal effective concentration in the data set with IFN-α (Table 4, 18 to 24 hours) was determined as 0.37 µM; in the data set on TNF-α (Table 4, 18 to 24 hours), 1.11 µM.
